From the Kinase Knowledgebase extract (Sharma et al. 2016) come the findings set out here.

Usually IC50 stands for the concentration that inhibits the measured activity by half. High values mean lower potency, low ones higher potency.

“And” between values parts separate entries of the source, which are not always exact repeats. Equal entries are not always repeated.

The target in the test is MAPK14 (human) (UniProt Q16539). Kind of test: Inhibition of MAPK14 Kinase Activity. Conditions: THP.1 monocytic.
Sequence of MAPK14 (human) (Q16539 whole entry, looked up): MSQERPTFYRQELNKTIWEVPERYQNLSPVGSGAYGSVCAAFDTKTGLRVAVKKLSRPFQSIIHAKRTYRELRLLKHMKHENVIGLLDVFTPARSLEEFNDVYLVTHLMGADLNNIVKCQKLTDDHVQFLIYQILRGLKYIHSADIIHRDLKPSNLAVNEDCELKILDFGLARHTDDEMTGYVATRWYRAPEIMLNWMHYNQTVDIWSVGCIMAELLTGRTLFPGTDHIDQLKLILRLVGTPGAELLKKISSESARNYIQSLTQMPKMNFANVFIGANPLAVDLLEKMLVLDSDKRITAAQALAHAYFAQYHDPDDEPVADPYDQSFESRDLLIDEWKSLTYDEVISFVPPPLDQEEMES
`N#Cc1ccc(Cn2ccc(OCc3ccccc3)c(Br)c2=O)cc1` showed an IC50 of under 1 µM. Take `Cc1cc(OCc2ccc(F)cc2F)c(Br)c(=O)n1-c1cc(C(N)=O)ccc1F`: the IC50 is under 1 µM. The value for `CN(C)Cc1cc(OCc2ccc(F)cc2F)c(Br)c(=O)n1-c1c(F)cccc1F` was under 1 µM; that for `O=c1c(Br)c(OCc2ccccc2)ccn1Cc1ccccc1C(F)(F)F` was over 100 µM. Consider `Cc1ccc(C(N)=O)cc1-n1c(C)cc(OCc2ccc(F)cc2F)c(Cl)c1=O`, for which the IC50 was under 1 µM. With `Cc1cc(OCc2ccc(F)cc2F)c(Br)c(=O)n1Cc1ccc(C(=O)NO)cc1` the figure was < 1 µM and 1 to 25 µM. `C=CCNc1cc(C)n(-c2c(F)cccc2F)c(=O)c1Br` registered an IC50 of 1 to 25 µM. With `Cc1cc(OCc2ccc(F)cc2F)c(Br)c(=O)n1Cc1cccc(CNC(=O)CO)c1` the figure was under 1 µM; with `COCCN(C)C(=O)c1ccc(Cn2c(C)cc(OCc3ccc(F)cc3F)c(Br)c2=O)cc1`, under 1 µM. With `CC(=O)Nc1ccc(Cn2c(C)cc(OCc3ccc(F)cc3F)c(Br)c2=O)cc1` the figure was under 1 µM.

In the case of `Cc1cnc(Cn2c(C)cc(OCc3ccc(F)cc3F)c(Br)c2=O)cn1`, the IC50 is under 1 µM. With `Cc1c(C=NO)c(OCc2ccc(F)cc2F)c(Br)c(=O)n1-c1c(F)cccc1F` the figure was 25 to 100 µM; with `O=C(c1ccc(-n2ccc(OCc3ccccc3)c(Br)c2=O)cc1)N1CCOCC1`, 1 to 25 µM. Turning to `Cc1cc(OCc2ccc(F)cc2F)c(Br)c(=O)n1Cc1ccc(C(=O)N(C)C)cc1`, the IC50 is under 1 µM. Take `O=c1c(Br)c(CCc2ccccc2)ccn1Cc1cccc(F)c1`: the half-inhibitory concentration (IC50) fell in the range of 1 to 25 µM.

For `Cc1cc(OCc2ccc(F)cc2F)c(Br)c(=O)n1-c1c(F)cc(N2CCOCC2)cc1F`, the IC50 is under 1 µM.

Compound `Cc1cc(OCc2cccc(Cl)c2)c(Br)c(=O)n1Cc1ccccc1` gave an IC50 of 1 to 25 µM. Compound `NC(=O)c1cccc(Cn2ccc(OCc3ccccc3)c(Br)c2=O)c1` registered an IC50 of 1 to 25 µM. For the compound `CN(C(=O)Oc1ccn(Cc2ccccc2)c(=O)c1Br)c1ccccc1`, the IC50 is over 100 µM. Compound `CNC(=O)NCc1cccc(-n2c(C)cc(OCc3ccc(F)cc3F)c(Br)c2=O)c1` came in with an IC50 of 1 to 25 µM. The compound `Cc1cc(OCc2ccc(F)cc2F)c(Br)c(=O)n1CCN1CCOCC1` had an IC50 of 25 to 100 µM.

The compound `Cc1cc(OCc2ccc(F)cc2F)c(Br)c(=O)n1Cc1ccc(C(=O)NC(C)C)cc1` came in with an IC50 of under 1 µM. With `CNC(=O)c1ccc(-n2c(C)cc(OCc3ccc(F)cc3F)c(Br)c2=O)cc1` the figure was over 100 µM; with `O=C(O)c1cc(OCc2ccc(F)cc2F)c(Br)c(=O)n1-c1c(F)cccc1F`, 1 to 25 µM. With `Cc1cc(OCc2cccc(Cl)c2)cc(=O)n1Cc1ccccc1`, the IC50 was over 100 µM. The value for `CNC(=O)c1ccc(OC)c(-n2c(C)cc(OCc3ccc(F)cc3F)c(Br)c2=O)c1` was under 1 µM. The value for `CNC(=O)c1ccc(Cn2c(C)cc(OCc3ccc(F)cc3F)c(Br)c2=O)cc1` was < 1 µM and 1 to 25 µM. With `Cc1cc(OCc2ccc(F)cc2F)c(Cl)c(=O)n1-c1cccc(C(=O)O)c1` the figure was 1 to 25 µM; with `Cc1cc(OCc2ccc(F)cc2F)c(Br)c(=O)n1Cc1ccccc1C(N)=O`, 1 to 25 µM. Consider `CCn1ccc(OCc2ccccc2)c(Br)c1=O`, for which the IC50 is 1 to 25 µM. The value for `CCOC(=O)c1cccc(-n2c(C)cc(OCc3ccc(F)cc3F)c(Br)c2=O)c1` was under 1 µM.

For the compound `O=c1c(Br)c(O)ccn1Cc1ccc(O)cc1`, the IC50 is over 100 µM.

Turning to `Cc1cnc(Cn2c(C)cc(OCc3ccc(F)cc3F)c(Cl)c2=O)cn1`, the IC50 is under 1 µM. For `Cc1c(OCc2ccccc2)ccn(Cc2cccc(F)c2)c1=O`, the IC50 fell in the range of 1 to 25 µM. With `Cc1cc(OCc2ccc(F)cc2F)c(Br)c(=O)n1Cc1cccc(CNC(N)=O)c1`, the IC50 fell in the range of 1 to 25 µM. The value for `COCCN(C)C(=O)c1cccc(-n2c(C)cc(OCc3ccc(F)cc3F)c(Br)c2=O)c1` was 1 to 25 µM; that for `CC(=O)OCC(=O)NCc1cccc(-n2c(C)cc(OCc3ccc(F)cc3F)c(Br)c2=O)c1` was 1 to 25 µM; that for `Cc1cc(OCc2ccc(F)cc2F)c(Br)c(=O)n1-c1ccc(C(=O)NO)cc1` was over 100 µM. `O=c1c(Br)c(CCc2ccccc2)ccn1Cc1ccccc1` returned an IC50 of 1 to 25 µM. As to `COC(=O)NCc1cccc(Cn2c(C)cc(OCc3ccc(F)cc3F)c(Br)c2=O)c1`, the IC50 was under 1 µM. As to `Cc1cc(OCc2ccc(F)cc2F)c(Br)c(=O)n1Cc1cnc(C(C)(C)O)cn1`, the IC50 was 1 to 25 µM. The compound `Cc1cc(OCc2ccc(F)cc2F)c(Br)c(=O)n1-c1c(F)cc(N2CCN(C)CC2)cc1F` registered an IC50 of under 1 µM. With `Cc1ccc(Cn2ccc(OCc3ccccc3)cc2=O)cc1` the figure was 25 to 100 µM; with `Cc1c(OCc2ccc(F)cc2)ccn(Cc2cccc(F)c2)c1=O`, 1 to 25 µM; with `O=c1c(Br)c(OCc2ccccc2C(F)(F)F)ccn1Cc1ccccc1`, 25 to 100 µM. The value for `Cc1cccc(C)c1-n1c(C)cc(OCc2ccc(F)cc2F)c(Br)c1=O` was under 1 µM. The value for `C=CCNc1cc(=O)n(-c2c(F)cccc2F)c(C)c1I` was 1 to 25 µM. `COC(=O)CCn1ccc(OCc2ccccc2)c(Br)c1=O` returned an IC50 of 1 to 25 µM. The value for `NC(=O)c1ccccc1Cn1ccc(OCc2ccccc2)c(Br)c1=O` was 1 to 25 µM; that for `Cn1ccc(OCc2ccccc2)c(Br)c1=O` was 1 to 25 µM. Consider `Cc1cc(OCc2ccc(F)cc2F)c(Br)c(=O)n1Cc1ccc(CN2CCOCC2)cc1`, for which the IC50 was under 1 µM. With `CNCc1cnc(Cn2c(C)cc(OCc3ccc(F)cc3F)c(Br)c2=O)cn1` the figure was 1 to 25 µM.

In turn, `O=c1c(Br)c(OCc2ccccc2Cl)ccn1Cc1ccccc1` yielded a half-maximal inhibitory concentration (IC50) of 1 to 25 µM.

For the compound `Cc1cc(OCc2ccc(F)cc2F)c(Br)c(=O)n1-c1cccc(C(=O)NCCCN)c1`, the IC50 is under 1 µM. With `CNC(=O)c1ccc(C)c(-n2c(C)cc(OCc3ccc(F)cc3CNC(=O)OC)c(Br)c2=O)c1` the figure was under 1 µM; with `Cc1cc(OCc2ccc(F)cc2F)c(Br)c(=O)n1Cc1ccc(CN(CCO)CCO)cc1`, under 1 µM.

In the case of `Cc1ccc(COc2ccn(Cc3ccccc3)c(=O)c2Br)cc1`, the IC50 was in the range of 1 to 25 µM. With `Cc1cc(OCc2ccc(F)cc2F)c(Br)c(=O)n1Cc1cccc(CNS(C)(=O)=O)c1` the figure was under 1 µM; with `Cc1cc(OCc2ccc(F)cc2F)c(Br)c(=O)n1-c1ccccc1C(F)(F)F`, under 1 µM; with `Cc1cc(OCc2ccc(F)cc2F)c(Br)c(=O)n1Cc1cccc(CN2CCOCC2)c1`, under 1 µM.

`COC(=O)c1ccc(Cn2ccc(OCc3ccccc3)c(Br)c2=O)cc1`: the IC50 was under 1 µM. The value for `Cc1cc(OCc2ccc(F)cc2F)c(Br)c(=O)n1-c1cccc(CN)c1` was 1 to 25 µM; that for `CCOC(=O)CCn1ccc(OCc2ccccc2)c(Br)c1=O` was 1 to 25 µM; that for `Cc1cc(OCc2ccc(F)cc2F)c(Br)c(=O)n1Cc1cnc(C(=O)N(C)C)cn1` was under 1 µM. The value for `Cc1cc(OCc2ccc(F)cc2F)c(Cl)c(=O)n1Cc1cnc(CO)cn1` was 1 to 25 µM. The value for `Cc1cc(OCc2ccc(F)cc2F)c(Cl)c(=O)n1-c1c(F)cc(N2CCN(C)CC2)cc1F` was under 1 µM; that for `O=c1cc(OCc2ccccc2)ccn1Cc1ccc(Br)cc1` was over 100 µM; that for `O=c1c(Br)c(NCc2ccccc2)ccn1Cc1cccc(F)c1` was 1 to 25 µM. `CC(=O)NCc1cccc(-n2c(C)cc(OCc3ccc(F)cc3F)c(Br)c2=O)c1` registered an IC50 of 1 to 25 µM. In turn, `Cc1cc(OCc2ccc(F)cc2F)c(Br)c(=O)n1Cc1ccnc(CN)n1` had an IC50 of 1 to 25 µM. With `O=c1c(Br)c(NCc2ccc(Cl)cc2F)ccn1Cc1cccc(F)c1` the figure was 1 to 25 µM; with `Cc1cc(OCc2ccc(F)cc2F)c(Br)c(=O)n1-c1ccc2cn[nH]c2c1`, under 1 µM; with `Cc1cc(OCc2ccc(F)cc2F)c(Br)c(=O)n1-c1cccc(C(=O)NCCN)c1`, under 1 µM. The value for `CC(C)(C)c1ccc(Cn2ccc(OCc3ccc(F)cc3F)c(Br)c2=O)cc1` was 1 to 25 µM; that for `COc1ccc(C(=O)N(C)C)cc1-n1c(C)cc(OCc2ccc(F)cc2F)c(Br)c1=O` was under 1 µM. The value for `Cc1cc(OCc2ccc(F)cc2F)c(Br)c(=O)n1-c1cccc(C(N)=O)c1` was under 1 µM; that for `Cc1cc(NCc2ccc(F)cc2F)c(Cl)c(=O)n1Cc1cccc(C#N)c1` was under 1 µM. Compound `O=c1c(Br)c(OCc2ccccc2)ccn1Cc1ccc(Br)cc1` gave an IC50 of under 1 µM.

The compound `Cc1ccc(CNC(C)C)cc1-n1c(C)cc(OCc2ccc(F)cc2F)c(Br)c1=O` came in with a 50% inhibitory concentration (IC50) of 1 to 25 µM. `O=c1c(Br)c(OCc2ccccc2)ccn1Cc1ccccc1F` returned an IC50 of under 1 µM. Consider `Cc1c(C(O)CO)c(OCc2ccc(F)cc2F)c(Br)c(=O)n1-c1c(F)cccc1F` (stereo not given), for which the IC50 was in the range of 25 to 100 µM. With `O=c1cc(OCc2ccccc2)ccn1Cc1ccc(OC(F)(F)F)cc1` the figure was 25 to 100 µM. For `Cc1cc(OCc2ccc(F)cc2F)c(Cl)c(=O)n1-c1cccc(CO)c1`, the half-maximal inhibitory concentration (IC50) lay within 1 to 25 µM. With `COCCNCc1cc(OCc2ccc(F)cc2F)c(Br)c(=O)n1-c1c(F)cccc1F` the figure was under 1 µM. As for `C=Cc1c(OCc2ccc(F)cc2F)c(Br)c(=O)n(-c2c(F)cccc2F)c1C`, the IC50 lay in the range of 25 to 100 µM.

`Cc1cc(OCc2ccc(F)cc2F)c(Br)c(=O)n1Cc1ccc(C(=O)NCCCN)cc1` had an IC50 of under 1 µM.

The compound `Cc1cc(OCc2ccc(F)cc2F)c(Cl)c(=O)n1-c1cccc(C(N)=O)c1` displayed an IC50 of under 1 µM. The compound `O=C(Nc1ccn(Cc2cccc(F)c2)c(=O)c1Br)c1c(F)cccc1F` yielded an IC50 of 1 to 25 µM.

The compound `Cc1cc(NCc2ccc(F)cc2)c(Br)c(=O)n1Cc1ccc(F)cc1` displayed a half-inhibitory concentration (IC50) of under 1 µM. With `O=C(O)c1ccc(Cn2ccc(OCc3ccccc3)c(Br)c2=O)cc1` the figure was under 1 µM; with `O=c1c(Br)c(OCc2ccccc2)ccn1CC1CCCNC1` (stereo not given), over 100 µM; with `O=c1cc(OCc2ccccc2Cl)ccn1Cc1ccccc1`, 25 to 100 µM.

As for `Cc1cc(OCc2ccc(F)cc2F)c(Br)c(=O)n1-c1ccc(CNC(=O)CO)cc1`, the IC50 was under 1 µM. With `Cc1cc(OCc2ccc(F)cc2F)c(Br)c(=O)n1Cc1ccc(C(=O)NCCN)cc1` the figure was under 1 µM. The value for `CC(C)(C)c1ccc(COc2ccn(Cc3cccc(F)c3)c(=O)c2Br)cc1` was over 100 µM.
